Results published in article PMC8879095, “UHPLC-MS/MS Analysis of Antibiotics Transfer and Concentrations in Porcine Oral Fluid after Intramuscular Application” (Pharmaceuticals, 2022).
Like-named read-outs stand apart in the source and are kept apart here.

Legend:
[1] = Antibiotic concentrations in porcine oral fluid after intramuscular application (UHPLC-MS/MS); type: in vivo; details: pigs, i.m.; for concentration at 1 d / concentration at 2 d / concentration at 3 d / concentration at 4 d / concentration at 5 d / concentration at 6 d / concentration at 7 d / concentration at 8 d / concentration at 9 d / concentration at 10 d / concentration at 11 d / concentration at 12 d / concentration at 13 d / concentration at 14 d / concentration at 15 d / concentration at 16 d / concentration at 17 d / concentration at 18 d / concentration at 19 d / concentration at 20 d / concentration at 21 d / concentration at 22 d / concentration at 23 d / concentration at 24 d / concentration at 25 d / concentration at 26 d / concentration at 27 d / concentration at 28 d / concentration at 29 d / concentration at 30 d: male, (Landrace × Yorkshire) × Duroc crossbred (DanBred sows), pig, intramuscular; for concentration at 1 d / concentration at 2 d / concentration at 3 d / concentration at 4 d / concentration at 5 d / concentration at 6 d / concentration at 7 d / concentration at 8 d / concentration at 9 d / concentration at 10 d / concentration at 11 d / concentration at 12 d / concentration at 13 d / concentration at 14 d / concentration at 15 d / concentration at 16 d / concentration at 17 d / concentration at 18 d / concentration at 19 d / concentration at 20 d / concentration at 21 d / concentration at 22 d / concentration at 23 d / concentration at 24 d / concentration at 25 d / concentration at 26 d / concentration at 27 d / concentration at 28 d / concentration at 29 d / concentration at 30 d / concentration in oral fluid at withdrawal period / Avarage Concentrations in oral fluid: oral fluid; for concentration in oral fluid at withdrawal period: at the end of the withdrawal period for tissues of each drug (Table 3); for distribution to oral fluid: conclusion in words
Experimental: All animals were born in the sow farm (8000 DanBred sows) located in Northern Poland, after crossing ♀(♂Landrace × ♀Yorskshire) × ♂Duroc. Piglets were weaned after 4 weeks of lactation with an average weight of 6 kg and then moved to the weaner stable (23,000 weaners). After the next 7 weeks, animals were transported to the 9000-places fattening farm with an average body weight of 28 kg, where the trial was performed. All farms in the aforementioned three-phase model used weekly batches and an all-in all-out system. Specialist veterinary and production management care were provided in each location.
For the purpose of the study, 240 immunologically castrated boars were divided into 8 groups, 30 animals in each pen. For the control group, 30 pigs were used in separate pens. Their initial body weight was between 40 and 60 kg. Pigs were housed at 20–25 °C. Fatteners were fed ad libitum with antimicrobial-free water and feed provided by feeders throughout the study. Before the experiment, water and feed were checked for antimicrobials, and no antimicrobial treatments were administered to these pigs before. All animals in one pen were treated due to the same health issue using disposable needles and the same drug and dosage. Pens were separated from each other with concrete walls. The drugs and dosage administered to each experimental group with an indication of withdrawal period for tissues are listed in Table 3. The oral fluid samples were collected using three cotton ropes (70 cm length with 1 cm diameter) in each pen suspended separately for 25 min on the front wall of the pen with bottoms at the pigs’ shoulder height, away from water and feed.
The research material was one pooled sample of oral fluid from 10 pigs, in triplicate, per pen. Ropes were removed immediately after collection. The first oral fluid sample was collected 24 h after the first injection. The collection of each subsequent sample took place at the same time (11:30 A.M.) for 35 consecutive days. Additionally, oral fluid samples were collected from pigs not treated with any antibiotics. Oral fluid from each pen was pooled into one 50-mL Falcon plastic tube and centrifuged at 9447× rcf for 15 min. Centrifuged material was transferred to a 15 mL plastic tube and frozen at −20 °C until analysis.
Before the analysis, the oral fluid samples were centrifuged at 9447× rcf. Next, an aliquot (1 mL) of oral fluid was placed into a 2 mL polypropylene centrifuge tube, and the 30 µL of the internal standard at the concentration of 2 µg/mL was added. For the extraction of analysed antibiotics, 600 µL of 0.5% formic acid was added, vortexed for 30 s and centrifuged for 10 min at 9447× rcf. Then, the supernatant was filtered through a […] PVDF filter into an amber glass vial before chromatographic analysis.
The mass spectrometry detection was operated in the positive ESI mode with multiple reaction monitoring (MRM).

[2] = cited from earlier work
[3] = first day of medication (abstract), read-out: concentration in oral fluid on the first day of medication
[4] = time 1 d (24 h after first injection), treatment period, read-out: Avarage Concentrations in oral fluid
[5] = treatment period, read-out: Avarage Concentrations in oral fluid
[6] = time 4 d, posttreatment, read-out: Avarage Concentrations in oral fluid
[7] = posttreatment, read-out: Avarage Concentrations in oral fluid
[8] = time 30 d, posttreatment, read-out: Avarage Concentrations in oral fluid
[9] = time 1 d (24 h after first injection), treatment period

concentration at 1 d [1, 3] | concentration at 1 d [1, 4] | concentration at 2 d [1, 5] | concentration at 3 d [1, 5] | concentration at 4 d [1, 6] | concentration at 5 d [1, 7] | concentration at 6 d [1, 7] | concentration at 7 d [1, 7] | concentration at 8 d [1, 7] | concentration at 9 d [1, 7] | concentration at 10 d [1, 7] | concentration at 11 d [1, 7] | concentration at 12 d [1, 7] | concentration at 13 d [1, 7] | concentration at 14 d [1, 7] | concentration at 15 d [1, 7] | concentration at 16 d [1, 7] | concentration at 17 d [1, 7] | concentration at 18 d [1, 7] | concentration at 19 d [1, 7] | SMILES | further results
22300 ng/g | 22300 ng/mL | 5860 ± 1160 ng/mL | 4570 ± 766 ng/mL | 4010 ng/mL | 5780 ± 788 ng/mL | 4070 ± 669 ng/mL | 310 ± 98 ng/mL | 392 ± 88 ng/mL | 386 ± 72 ng/mL | 134 ± 49 ng/mL | 247 ± 62 ng/mL | 74.8 ± 21 ng/mL | 68 ± 16 ng/mL | 77.4 ± 18 ng/mL | 69.8 ± 14 ng/mL | 78.4 ± 12 ng/mL | 47 ± 18 ng/mL | 44.2 ± 16 ng/mL | 58.4 ± 11 ng/mL | COc1ncnc(NS(=O)(=O)c2ccc(N)cc2)c1OC [SDX, sulfadoxine] | concentration at 20 d [1, 7]: 76.4 ± 14 ng/mL; concentration at 21 d [1, 7]: 21.4 ± 7.3 ng/mL; concentration at 22 d [1, 7]: 25.3 ± 6.9 ng/mL; concentration at 23 d [1, 7]: 15.9 ± 7.2 ng/mL; concentration at 24 d [1, 7]: 37 ± 5.4 ng/mL; concentration at 25 d [1, 7]: 31.5 ± 6.3 ng/mL; concentration at 26 d [1, 7]: 19.1 ± 4.2 ng/mL; concentration at 27 d [1, 7]: 19.3 ± 3.7 ng/mL; concentration at 28 d [1, 7]: 35 ± 8.1 ng/mL; concentration at 29 d [1, 7]: 30.4 ± 7.6 ng/mL; concentration at 30 d [1, 8]: 23 ng/mL; concentration in oral fluid at withdrawal period [1]: 247 ng/mL; Avarage Concentrations in oral fluid [1, 9]: 22,300 ± 3555 µg/L; Avarage Concentrations in oral fluid ([1]; time 4 d, posttreatment): 4010 ± 601 µg/L; Avarage Concentrations in oral fluid ([1]; time 30 d, posttreatment): 23.0 ± 6.2 µg/L; distribution to oral fluid [1]: high distribution; pKa ([2]; weak organic acid): 6.16
7600 ng/g | 7600 ng/mL | 2520 ± 355 ng/mL | 2460 ± 311 ng/mL | 1560 ng/mL | 1540 ± 233 ng/mL | 2960 ± 299 ng/mL | 2570 ± 254 ng/mL | 875 ± 156 ng/mL | 567 ± 111 ng/mL | 621 ± 124 ng/mL | 279 ± 66 ng/mL | 254 ± 69 ng/mL | 138 ± 43 ng/mL | 269 ± 71 ng/mL | 156 ± 41 ng/mL | 279 ± 68 ng/mL | 182 ± 49 ng/mL | 176 ± 52 ng/mL | 202 ± 45 ng/mL | C=C[C@]1(C)C[C@@H](OC(=O)CSCCN(CC)CC)[C@]2(C)[C@H](C)CC[C@]3(CCC(=O)[C@H]32)[C@@H](C)[C@@H]1O [TIAM, tiamulin] | concentration at 20 d [1, 7]: 133 ± 36 ng/mL; concentration at 21 d [1, 7]: 148 ± 32 ng/mL; concentration at 22 d [1, 7]: 220 ± 44 ng/mL; concentration at 23 d [1, 7]: 146 ± 29 ng/mL; concentration at 24 d [1, 7]: 310 ± 55 ng/mL; concentration at 25 d [1, 7]: 193 ± 33 ng/mL; concentration at 26 d [1, 7]: 66.4 ± 12 ng/mL; concentration at 27 d [1, 7]: 54.3 ± 14 ng/mL; concentration at 28 d [1, 7]: 35.8 ± 17 ng/mL; concentration at 29 d [1, 7]: 40.6 ± 21 ng/mL; concentration at 30 d [1, 8]: 46.9 ng/mL; Avarage Concentrations in oral fluid [1, 9]: 7600 ± 1055 µg/L; Avarage Concentrations in oral fluid ([1]; time 4 d, posttreatment): 1560 ± 225 µg/L; Avarage Concentrations in oral fluid ([1]; time 30 d, posttreatment): 46.9 ± 19 µg/L; distribution to oral fluid [1]: high distribution; pKa [2]: 7.6
14100 ng/g | 14100 ng/mL | 2810 ± 556 ng/mL | 1810 ± 311 ng/mL | 1030 ± 221 ng/mL | 1400 ± 255 ng/mL | 1280 ± 198 ng/mL | 264 ± 73 ng/mL | 125 ± 41 ng/mL | 128 ± 38 ng/mL | 36.4 ± 15 ng/mL | 67.1 ± 20 ng/mL | 25.2 ± 9.6 ng/mL | 22 ± 8.7 ng/mL | 22.1 ± 6.4 ng/mL | 31.6 ± 11 ng/mL | 24.2 ± 8.2 ng/mL | 18.9 ± 4.8 ng/mL | 13 ± 3.6 ng/mL | 42 ± 14 ng/mL | COc1cc(Cc2cnc(N)nc2N)cc(OC)c1OC [TRMP, trimethoprim] | concentration at 20 d [1, 7]: 36.4 ± 10 ng/mL; concentration at 21 d [1, 7]: 10.2 ± 4.4 ng/mL; concentration at 22 d [1, 7]: 46.4 ± 16 ng/mL; concentration at 23 d [1, 7]: 6.9 ± 2.4 ng/mL; concentration at 24 d [1, 7]: 19.4 ± 5.5 ng/mL; concentration at 25 d [1, 7]: 17.8 ± 4.1 ng/mL; concentration at 26 d [1, 7]: 15.9 ± 3.6 ng/mL; concentration at 27 d [1, 7]: 10.4 ± 2.9 ng/mL; concentration at 28 d [1, 7]: 16.5 ± 6.2 ng/mL; concentration at 29 d [1, 7]: 21.2 ± 9.4 ng/mL; concentration at 30 d [1, 8]: 22.4 ng/mL; concentration in oral fluid at withdrawal period [1]: 67.1 ng/mL; Avarage Concentrations in oral fluid [1, 9]: 14,100 ± 2556 µg/L; Avarage Concentrations in oral fluid ([1]; time 30 d, posttreatment): 22.4 ± 9.1 µg/L; distribution to oral fluid [1]: high distribution
